In EP2451450B1, “Inhibitors of proline racemase enzymes for the treatment of Trypanosoma spp infections” (Institut Pasteur, priority 2009, dated 2011):
Read-outs that look alike come from different tables or passages of the source.

Columns and labels:
[1] = biological target: T1, TcPRAC (Trypanosoma cruzi, UniProt Q4DA80); experiment: L-proline racemization assay, formed D-proline determined by DAAOx test; assay type: biochemical
T1 construct: implied only by nickel IMAC purification; made in house; host or cells: E. coli BL21 (DE3)
Experimental: (§1) Briefly, classical assays of Proline racemization induced by TcPRAC were performed in tubes in a final volume of 1.5 ml and optical rotations measured in a polarimeter 241MC (Perkin Elmer). Parallel assays of Proline racemization were transposed into microplates in a final volume of 100 µl, as follows: serial dilutions of L- Proline ranging from 40 mM to 2.5 mM were prepared in 0.2 M sodium acetate pH 6.0 containing 0.25 mM rTcPRAC and loaded into microplate wells in the presence or in the absence of 0 - 20 µM pyrrole-2 carboxylic acid (PYC) or of similar dilutions of unknown potential inhibitors. Specific control wells were included omitting the TcPRAC and/or the PYC.
Microplates were incubated for 30 minutes at 37° C. Enzyme activity was then inactivated by heating the plate for 15 seconds in a microwave oven at 900 watts after shifting the pH of wells to 8.3 by addition of 6.8 µl of 0.235 M sodium Pyrophosphate. 50 µl of each well were used to test the presence of D-Proline using the DAAOx (D-amino acid oxidase) test described below. L- amino acids may react at very low rate with DAAOx. For instance, DAAOx reacts with L-Proline 300 times slower than D-Proline. Consequently, when assessing amino acid racemization products, standards should consist of serial dilution of equimolar mixtures of specific D- and L-amino acids ranging from 0 to 20 mM (10 mM final) to take into account any interference of possible reactivity with DAAOx of the L- form of amino acids present in the samples.
Solution A consisting of 0.2 M sodium acetate/0.016 M sodium pyrophosphate (Pop) buffer, pH 8.3 was used to prepare the enzyme stock solutions conserved in 50% glycerol, namely: 50 U/ml D-amino acid oxidase from pig kidney (DAAOx, Sigma) and 5000 U/ml Horse Raddish Peroxydase (HRP, Sigma). Stock solutions of L- proline (1M), D- proline (1M) and Pyrrole-2-carboxylic acid (10 mM) (PYC, Sigma) are also prepared in solution A. 10^-1 M FAD (Sigma) stock was prepared in water. Solution B consists in adding to solution A the following reagents at a final concentration in the assay of 1 U/ml for DAAOx, 0.5 mg/ml orthophenylenediamine (OPD, Sigma), 37.5 U/ml HRP and FAD (1.5x10^-5 M FAD). The test is run in 96 wells micro plates (Nunc, Denmark). […] OD 490nm - 650nm is obtained with a microtiter plate reader (Molecular Devices), and compared to those obtained with blank control wells.
The values presented in Table 2A correspond to racemization reactions performed in the absence or in the presence of 10 µM concentration of the different ligands. […] Briefly, 22.4 mg/ml of active TcPRAC was used in the racemization assays of 10 mM L-proline substrate and the concentration of formed D-proline was determined by the DAAOx test, as described in the Material and Methods. […]

[2] = biological target: T1, TcPRAC; experiment: L-proline racemization assay by polarimetry; assay type: biochemical; details: ligand 10.0 µM; L-Proline 20 mM, 30 minutes 37°C, 0.25 µM TcPRAC
Experimental: as §1
The values presented in Table 2B correspond to racemization reactions performed in the absence or in the presence of the different inhibitors. Note that 6 µM PYC is necessary to inhibit 100 % of the racemization of 10-20 mM L-proline. Briefly, L-Proline (20 mM) were incubated for 30 minutes at 37°C in test tubes with or without 0.25 µM TcPRAC in 0.2 M sodium acetate pH 6. Reactions were stopped by heating at 65° C for 10 minutes. Reaction volumes were analyzed for D-Proline formation, by measuring optical rotations in a polarimeter (365nm).

[3] = tested on: T. cruzi; experiment: Capture ELISA of Vero cultures infected 17h with or without inhibitor; assay type: cell-based, Trypanosoma cruzi; details: 17h at 37°C, 10:1 parasite/cell ratio; 0-30 mM OxoPA, Br-OxoPA or 10-1000 µM PYC in DMSO; Fig. 9
Experimental: Flat-bottomed microtiter plates (Nunc, Denmark) were coated overnight at 4°C with rabbit anti-T. cruzi polyclonal antibodies and further blocked for 4 h at room temperature (RT) with 1% BSA, 0.05% Tween 20 in PBS. After washings, lysate samples from infected or control Vero cultures, or from T. cruzi, were then added and incubated at 4°C for 18h. Plates were washed with PBS-Tween and incubated for 2h at RT with polyclonal mouse anti-T. cruzi chronic serum, washed again and incubated for 1 h at RT with HRP-secondary antibodies. […] Optical densities were determined in a spectrophotometer at 450 nm and 650 nm and analyzed using Softmax Pro software.
To confirm the effect of the inhibitors in the initial steps of the host-parasite interaction, cultures were infected for 17h at 37°C at a 10:1 parasite/cell ratio with or without increasing doses of freshly prepared dilutions (0-30 mM) of OxoPA, Br-OxoPA (15), or (10-1000 µM) of PYC, previously dissolved in DMSO and further analyzed by capture ELISA (see methods and Fig. 9). […] Three ongoing studies were performed to determine whether TcPRAC inhibition by the new compounds affects parasite intracellular fate. To do this, host cells were infected for 17 hours then washed and different ligand concentrations (5 mM, 10 mM, 30, 100 mM) were added to the medium. The degree of infection was determined over 48 hours by capture ELISA. The number of parasites per well decreased in a dose-dependent manner (Fig. 7). These experiments indicate that TcPRAC inhibition by OxoPA and Br-OxoPA affects both cellular infection by T. cruzi and parasite development in tissues.

[4] = tested on: T.cruzi CL Brener (clone F11-F5); details: cited from earlier work; for Mean number of parasites/ cell / % Infected cells / Endocytic index: from previous work; for Endocytic index (EI): Table 5, same PYC data as Table 3A
[5] = biological target: recombinant TvPRAC; details: 5 µM PYC, 20-160 mM L-proline; Chamond et al 2009; cited from earlier work
[6] = biological target: T1, TcPRAC; details: cited from earlier work
[7] = biological target: CsPRAC; details: value given for comparison; cited from earlier work
[8] = biological target: T1, TcPRAC; assay type: biochemical; details: in words; for inhibition of TcPRAC activity: Table 1
Experimental: Optimum Proline racemization conditions for TcPRAC were determined using 10-20 mM L-Proline in 0.2 M NaOAc, as a function of pH, as described [24].
Briefly, classical assays of Proline racemization induced by TcPRAC were performed in tubes in a final volume of 1.5 ml and optical rotations measured in a polarimeter 241MC (Perkin Elmer). […] Specific control wells were included omitting the TcPRAC and/or the PYC.
Microplates were incubated for 30 minutes at 37° C. Enzyme activity was then inactivated by heating the plate for 15 seconds in a microwave oven at 900 watts after shifting the pH of wells to 8.3 by addition of 6.8 µl of 0.235 M sodium Pyrophosphate. 50 µl of each well were used to test the presence of D-Proline using the DAAOx (D-amino acid oxidase) test described below [25]. L- amino acids may react at very low rate with DAAOx. For instance, DAAOx reacts with L-Proline 300 times slower than D-Proline. Consequently, when assessing amino acid racemization products, standards should consist of serial dilution of equimolar mixtures of specific D- and L-amino acids ranging from 0 to 20 mM (10 mM final) to take into account any interference of possible reactivity with DAAOx of the L- form of amino acids present in the samples.
Solution A consisting of 0.2 M sodium acetate/0.016 M sodium pyrophosphate (Pop) buffer, pH 8.3 was used to prepare the enzyme stock solutions conserved in 50% glycerol, namely: 50 U/ml D-amino acid oxidase from pig kidney (DAAOx, Sigma) and 5000 U/ml Horse Raddish Peroxydase (HRP, Sigma). Stock solutions of L- proline (1M), D- proline (1M) and Pyrrole-2-carboxylic acid (10 mM) (PYC, Sigma) are also prepared in solution A. 10^-1 M FAD (Sigma) stock was prepared in water. Solution B consists in adding to solution A the following reagents at a final concentration in the assay of 1 U/ml for DAAOx, 0.5 mg/ml orthophenylenediamine (OPD, Sigma), 37.5 U/ml HRP and FAD (1.5x10^-5 M FAD). […] OD 490nm - 650nm is obtained with a microtiter plate reader (Molecular Devices), and compared to those obtained with blank control wells. […]

T1 sequence (Q4DA80 32-423): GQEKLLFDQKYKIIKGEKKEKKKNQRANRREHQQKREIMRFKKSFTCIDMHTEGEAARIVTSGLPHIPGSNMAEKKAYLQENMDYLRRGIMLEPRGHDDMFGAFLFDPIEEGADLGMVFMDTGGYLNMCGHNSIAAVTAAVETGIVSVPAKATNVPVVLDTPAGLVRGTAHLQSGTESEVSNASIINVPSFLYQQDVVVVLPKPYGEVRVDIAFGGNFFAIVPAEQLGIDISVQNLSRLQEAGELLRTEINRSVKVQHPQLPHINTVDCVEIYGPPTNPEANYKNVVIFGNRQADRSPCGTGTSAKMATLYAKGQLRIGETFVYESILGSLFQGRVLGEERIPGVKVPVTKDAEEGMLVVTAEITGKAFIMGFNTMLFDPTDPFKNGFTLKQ

O=C(O)c1ccc[nH]1 [PYC, pyrrole-2-carboxylic acid]
IC50 [1]: ~10 µM
Formed D-Proline ([1]; ligand 10 µM, 10 mM L-proline, 22.4 mg/ml TcPRAC, 5.0mM without ligand): 2.4 mM (IC50)
Racemization Inhibition [2]: 56.9%
inhibition of cellular infection [3]: no particular differences were observed
Mean number of parasites/ cell ([4]; 10 µM, 2 at 0): 1,7
% Infected cells ([4]; 10 µM, 90,0 at 0): 75,0%
Endocytic index ([4]; 10 µM): 44
% Infected cells ([4]; 100 µM): 45,0%
Endocytic index ([4]; 100 µM): 30
Mean number of parasites/ cell ([4]; 100 µM): 1,5
% Infected cells ([4]; 1000 µM): 25,0%
Endocytic index ([4]; 1000 µM): 25
Mean number of parasites/ cell ([4]; 1000 µM): 1,0
Endocytic index (EI) ([4]; Inhibitor concentration 10): 44
Endocytic index (EI) ([4]; Inhibitor concentration 100): 30
Endocytic index (EI) ([4]; Inhibitor concentration 1000): 25
Ki [5]: 20 µM
PYC necessary to inhibit 100 % of the racemization of 10-20 mM L-proline ([6]; reference [15]): 6 µM
affinity for the TcPRAC catalytic pocket ([6]; reference [15]): 6 µM
Ki ([6]; value given for comparison): 6.7 µM
Ki [7]: 18 µM

O=C(O)c1n[nH]cc1Br [Pyrazole 4-bromo 5-carboxylic, 4-bromo-1H-pyrazole-3-carboxylic acid]
inhibition of TcPRAC activity [8]: weak inhibitions

O=C(O)c1n[nH]cc1Cl [Pyrazole 4-chloro 5-carboxylic, 4-chloro-1H-pyrazole-3-carboxylic acid]
inhibition of TcPRAC activity [8]: weak inhibitions

O=C(O)c1cc[nH]n1 [Pyrazole 5-carboxylic, 1H-pyrazole-3-carboxylic acid]
activity with PRAC (Figure 1 compounds) [8]: very weakly active
